What is called viability is a read-out of living cells in per cent, often relative to untreated cells.

Each structure is given as a SMILES string.

A short description of the data set: in vitro. To be noted: human, hela cells, % viability.

`COC(=O)CN1C(c2ccccc2O)Nc2ccc(Br)cc2C1c1ccccc1` (stereo not shown) [CBK263133]: the viability at 28.5 h, 10 µM is 91.1%.

For `COC(=O)c1ccc(NC(=O)CCN2C(=O)c3cccc([N+](=O)[O-])c3C2=O)cc1` [CBK263137], the viability at 28.5 h, 10 µM worked out at 98.1%.

Regarding `O=C(Nc1cccc(-c2nc3ncccc3o2)c1)c1ccc(OCc2ccccc2)cc1` [CBK263139], the viability at 28.5 h, 10 µM was 102%.

As to `COc1ccc(C2=Nc3ccc(Br)cc3C(c3ccccc3)N2CC(=O)NN)cc1` (stereo not shown) [CBK263141], the viability at 28.5 h, 10 µM stood at 95.8%.

As to `CCn1c2ccccc2c2cc(CN3CCN(Cc4cccc(F)c4)CC3)ccc21` [CBK263143], the viability at 28.5 h, 10 µM is 90.5%.

Regarding `NNc1nccc(Nc2ccccc2C(=O)O)n1` [CBK263145], the viability at 28.5 h, 10 µM was found to be 95.9%.

For the compound `O=C1CSC(c2cn(-c3ccccc3)nc2-c2ccc(Br)cc2)N1Cc1ccccc1` (stereo not shown) [CBK263146], the viability at 28.5 h, 10 µM was found to be 97.4%.

As for `COc1ccc(CCNc2c3c(c(C#N)c4nc5ccccc5n24)CCC3)cc1OC` [CBK263147], the viability at 28.5 h, 10 µM turned out to be 97.9%.

In the case of `O=C1NC(=S)NC(=O)C1=Cc1cn(-c2ccccc2)nc1-c1ccc(-c2ccc([N+](=O)[O-])cc2)o1` [CBK263149], the viability at 28.5 h, 10 µM (bulk resorufin, single well) amounted to 107%.

In the case of `COC(=O)c1ccccc1NC(=O)COc1ccc(Br)c(C)c1` [CBK263152], the viability at 28.5 h, 10 µM came to 89.4%.

Consider `S=C(Nc1ccc2nc3c4ccccc4c4ccccc4c3nc2c1)N1CCOCC1` [CBK263153], for which, for the setting “bulk resorufin, single well”, the viability at 28.5 h, 10 µM stood at 94.7%.

Turning to `O=C(CC1Nc2ccccc2NC1=O)Nc1cccc(C(=O)O)c1` (stereo not shown) [CBK263155], the viability at 28.5 h, 10 µM is 102%.

With `COc1cc(CN2CCN(Cc3cccc([N+](=O)[O-])c3)CC2)cc(OC)c1` [CBK263156], the viability at 28.5 h, 10 µM amounted to 95%.

Turning to `COc1ccc(-c2nnc(SCC(=O)NN)n2-c2ccccc2)cc1` [CBK263157], the viability at 28.5 h, 10 µM stood at 87.3%.

As to `C=C(C)Cn1c(SCC(=O)O)nnc1-c1ccc([N+](=O)[O-])cc1` [CBK263159], the viability at 28.5 h, 10 µM amounted to 89.8%.

Take `COc1ccc(NC(=O)c2ccc3nsnc3c2)cc1` [CBK263160]: the viability at 28.5 h, 10 µM amounted to 92.6%.

As for `CCn1c2ccccc2c2cc(CN3CCN(Cc4c[nH]c5ccccc45)CC3)ccc21` [CBK263167], the viability at 28.5 h, 10 µM is 89.3%.

Regarding `Cc1ccc(NC(=O)CCN2C(=O)c3cccc([N+](=O)[O-])c3C2=O)c(Br)c1` [CBK263172], the viability at 28.5 h, 10 µM was found to be 98%.

Take `O=C(CSc1nc2ccccc2n1Cc1ccccc1)N/N=C/c1ccco1` [CBK263174]: the viability at 28.5 h, 10 µM came out at 89.6%.

For the compound `CC(=O)Oc1ccccc1C(=O)Oc1ccc2c(c1)c(C(C)=O)c(C)n2-c1ccccc1` [CBK263175], the viability at 28.5 h, 10 µM stood at 89.2%.

Regarding `CC1C(=O)N(c2ccc(Cl)c(Cl)c2)C(=N)N1c1nc(N(C)C)nc(N(C)C)n1` (stereo not shown) [CBK263182], the viability at 28.5 h, 10 µM turned out to be 93.2%.

Regarding `Nn1cnn2c(SCC(=O)c3cccs3)nnc12` [CBK263184], the viability at 28.5 h, 10 µM amounted to 105%.

Turning to `N#C/C(=C/c1ccc(OCc2ccc(C(=O)O)cc2)cc1)C(=O)Nc1ccc(Cl)cc1` [CBK263187], the viability at 28.5 h, 10 µM came to 98.2%.

For the compound `CCOc1cccc(NC(=O)/C(C#N)=C\c2cc(C)n(-c3ccc4c(c3)OCO4)c2C)c1` [CBK263191], the viability at 28.5 h, 10 µM was determined as 85.9%.

As to `Nn1cnn2c(SCCSC3CCCCC3)nnc12` [CBK263192], the viability at 28.5 h, 10 µM was 108%.

As to `O=C(CSc1nnc2c(n1)[nH]c1ccccc12)Nc1ccccc1[N+](=O)[O-]` [CBK263195], the viability at 28.5 h, 10 µM was found to be 100%.

For `Cc1[nH]c(=O)[nH]c1C(=O)CCCCC(=O)O` [CBK263197], the viability at 28.5 h, 10 µM stood at 94%.

On to `Cc1cc(-c2ccccc2)sc1C(=O)/C=C(\O)C(=O)O` [CBK263198], for which the viability at 28.5 h, 10 µM amounted to 100%.

As to `COc1ccc(C(=O)N/C(=C/c2ccc([N+](=O)[O-])cc2)c2nc3ccc(C(F)(F)F)cc3[nH]2)cc1OC` [CBK263199], the viability at 28.5 h, 10 µM came to 104%.

Consider `O=[N+]([O-])c1ccc2c(c1)C(N1CCOCC1)/C(=C/C1(O)CCCCC1)O2` (stereo not shown) [CBK263200], for which the viability at 28.5 h, 10 µM was 103%.

On to `O=C(O)c1ccc(Br)c(S(=O)(=O)NCc2ccccc2)c1` [CBK263202], for which the viability at 28.5 h, 10 µM was 90.8%.

As for `N#Cc1c(NC(=O)c2cc(S(=O)(=O)N3CCOCC3)c(Cl)cc2Cl)sc2c1CCCC2` [CBK263204], the viability at 28.5 h, 10 µM was determined as 95.7%.

In the case of `CCN(CC)S(=O)(=O)c1ccc(Cl)c(C(=O)Oc2cccc3cccnc23)c1` [CBK263205], the viability at 28.5 h, 10 µM is 118%.

On to `O=C(c1coc2ccc(O)c(CN3CCCCC3)c12)C1CC1` [CBK263206C], for which the viability at 28.5 h, 10 µM stood at 93.7%.

As for `O=S(=O)(NCc1ccccc1)c1cc(S(=O)(=O)c2ccc(Cl)cc2)ccc1Cl` [CBK263207], the viability at 28.5 h, 10 µM turned out to be 109%.

Regarding `Cc1ccc(NC(=O)/C(C#N)=C/c2ccc(-c3ccccc3C(=O)O)o2)cc1Cl` [CBK263208], the viability at 28.5 h, 10 µM was 102%.

For the compound `COc1ccc(NS(=O)(=O)c2ccc(Cl)c(C(=O)Nc3ccccc3C(=O)O)c2)cc1` [CBK263209], the viability at 28.5 h, 10 µM was found to be 104%.

As for `O=C(Oc1cccc2cccnc12)c1cc(S(=O)(=O)N2CCOCC2)ccc1Cl` [CBK263210], the viability at 28.5 h, 10 µM was found to be 91.3%.

Regarding `Cc1ccc(C(=O)Oc2cccc(NC(=O)c3ccco3)c2)cc1S(=O)(=O)N1CCOCC1` [CBK263211], the viability at 28.5 h, 10 µM was determined as 94.1%.

Regarding `Cc1ccc(C(=O)Nc2ccccc2C(=O)O)cc1S(=O)(=O)NCc1ccccc1` [CBK263212], the viability at 28.5 h, 10 µM stood at 98.7%.

Take `Cc1cc(C)nc(SCC(=O)Nc2cccc(C(=O)O)c2)n1` [CBK263214]: the viability at 28.5 h, 10 µM was determined as 101%.

For `Cc1ccc(-c2nnc(-c3cccc(S(=O)(=O)N4CCOCC4)c3)o2)cc1` [CBK263215], the viability at 28.5 h, 10 µM was 112%.

As to `COc1ccc(Br)cc1/C=N/NC(=O)C1CC(c2ccccc2)(c2ccccc2)C1` [CBK263218], the viability at 28.5 h, 10 µM was determined as 88.8%.

In the case of `CCOC(=O)c1c(NC(=O)CSc2nc3ccccc3s2)sc2c1CCC2` [CBK263220], the viability at 28.5 h, 10 µM stood at 93%.

Turning to `COc1ccc(CCNC(=O)C(=O)Nc2ccc(C)c(C)c2)cc1` [CBK263222], the viability at 28.5 h, 10 µM turned out to be 91.1%.

Regarding `Cc1cc(C)nc(SCC(=O)Nc2ccc(C(=O)O)cc2)n1` [CBK263223], the viability at 28.5 h, 10 µM came out at 97.8%.

Consider `CCOC(=O)c1c(NC(=O)CN2CCCCC2)sc2c1CCCC2=O` [CBK263224], for which the viability at 28.5 h, 10 µM is 112%.

As for `O=C(CSc1nc2ccccc2[nH]1)Nc1cccc(C(=O)O)c1` [CBK263225], the viability at 28.5 h, 10 µM was determined as 105%.

As for `O=C(O)c1cccc(NC(=O)c2ccc(CSc3ccc(Br)cc3)cc2)c1` [CBK263226], the viability at 28.5 h, 10 µM is 98.3%.

In the case of `Cc1cc(S(=O)(=O)Nc2cccc(C(=O)O)c2)c(C)c(S(=O)(=O)c2ccccc2)c1` [CBK263227], the viability at 28.5 h, 10 µM is 88.3%.

For the compound `N#C/C(=C\c1ccc(C(=O)O)cc1)C(=O)NCC1CCCO1` (stereo not shown) [CBK263228], the viability at 28.5 h, 10 µM is 95%.

As to `COc1ccc(C2=NN(c3ccccc3)C(c3cn(-c4ccccc4)nc3-c3ccccc3)C2)cc1` (stereo not shown) [CBK263230], the viability at 28.5 h, 10 µM amounted to 88.9%.

Consider `COc1ccc(-n2c(SCC(N)=O)nc3sc4c(c3c2=O)CC(C)(C)OC4)cc1` [CBK263232], for which the viability at 28.5 h, 10 µM came to 101%.

In the case of `COc1ccc2[nH]c(Sc3c([N+](=O)[O-])nc(C)n3Cc3ccccc3)nc2c1` [CBK263235], the viability at 28.5 h, 10 µM was 80.7%.

With `O=C(O)CCN1CCn2c3c(c4cc(C5CCCCC5)ccc42)CCCC31` (stereo not shown) [CBK263236], the viability at 28.5 h, 10 µM was 91.4%.

In the case of `C=CCn1c2ccccc2c2nnc(SCC(=O)N3c4ccccc4Sc4ccccc43)nc21` [CBK263237], the viability at 28.5 h, 10 µM is 106%.

For the compound `O=C(Nc1ccccc1C(=O)O)c1cc(S(=O)(=O)Nc2cccc(F)c2)ccc1Cl` [CBK263242], the viability at 28.5 h, 10 µM was determined as 84.7%.

For `CC(=O)c1ccc(NC(=O)c2cccc(S(=O)(=O)N3CCCCC3)c2)cc1` [CBK263246], the viability at 28.5 h, 10 µM stood at 96.4%.

Take `O=C(O)c1ccc(Br)c(S(=O)(=O)Nc2ccc(Cl)cc2)c1` [CBK263247]: the viability at 28.5 h, 10 µM came out at 98%.

For `c1ccc2c(c1)[nH]c1nc(SCCN3CCCCC3)nnc12` [CBK263249], the viability at 28.5 h, 10 µM worked out at 88.7%.

Regarding `S=C(NCCCN1CCOCC1)Nc1cccc(Cl)c1` [CBK263255], the viability at 28.5 h, 10 µM came out at 95%.

On to `CN(C)c1ccc([N+](=O)[O-])cc1/C=N/NC(=O)CCc1ccccc1O` [CBK263257], for which the viability at 28.5 h, 10 µM is 86.1%.

`Cc1ccccc1C(=O)N/N=C/c1ccc(Sc2nnnn2-c2ccccc2)o1` [CBK263259]: the viability at 28.5 h, 10 µM turned out to be 114%.

For `O=C(CSCC(=O)c1ccc(F)cc1)Nc1ccc2ccccc2c1` [CBK263264], the viability at 28.5 h, 10 µM came out at 88.1%.

Consider `O=C(O)CSCc1ccc(C(=O)O)o1` [CBK263267], for which the viability at 28.5 h, 10 µM was 107%.

For `CCCC(=O)NC(c1ccc(OC)c(OC)c1)c1c(O)ccc2ccccc12` (stereo not shown) [CBK263269], the viability at 28.5 h, 10 µM was determined as 95.2%.

`O=C(CC1c2ccccc2Oc2ccccc21)Nc1ccc(Cc2ccncc2)cc1` [CBK263271]: the viability at 28.5 h, 10 µM came out at 91.6%.

With `COc1ccc(/C(N)=N/OC(=O)Cc2ccc(Cl)cc2)cc1OC` [CBK263272], the viability at 28.5 h, 10 µM is 93.2%.

For the compound `Cc1c(Cl)cccc1NC(=O)C(=O)NCCCN1CCOCC1` [CBK263276], the viability at 28.5 h, 10 µM turned out to be 109%.

As for `N=C(N/N=C\c1ccncc1)N/N=C\c1ccncc1` [CBK263278C], the viability at 28.5 h, 10 µM was 94.1%.

As for `O=S(=O)(NC(c1c[nH]c2ccccc12)C(Cl)(Cl)Cl)c1ccccc1` (stereo not shown) [CBK263279], the viability at 28.5 h, 10 µM came to 91.7%.

In the case of `CN1CCN(c2ccc([N+](=O)[O-])cc2/C=N/NC(=O)CCc2ccccc2O)CC1` [CBK263281], the viability at 28.5 h, 10 µM is 97.7%.

In the case of `c1nnc(SCc2ccc(CSc3nnc[nH]3)cc2)[nH]1` [CBK263282], the viability at 28.5 h, 10 µM amounted to 93.5%.

For the compound `Cc1nc2ncccn2c1-c1csc(Nc2ccc(C(=O)O)cc2)n1` [CBK263284], the viability at 28.5 h, 10 µM came to 125%.

Consider `CCOc1ccc(N2C(=O)CC(N3CCN(c4ccccn4)CC3)C2=O)cc1` (stereo not shown) [CBK263285], for which the viability at 28.5 h, 10 µM was 100%.

Take `COc1ccccc1OCCOc1cccc(/C=N/n2cnnc2)c1` [CBK263288]: the viability at 28.5 h, 10 µM amounted to 94.7%.

The values are drawn from article PMC12040169 (PLOS Biology, 2025).
